SMILES strings stand for the structures.

In one test the test system is MIF. Kind of test: MC38 model, co-administration with cisplatin: anti-MIF antibody titer and serum cytokines. The class given is in vivo, mouse. Conditions: versus control group; FIG. 33. An excerpt:
Thus, it was considered that the production of anti-MIF antibody increased, and it was expected that the production of serum cytokines, which is a measure of the increase in immune activity in the body, would also be increased.

The test system of test [1] is immune cells secreting IFN-γ and TNF-α. Kind of test: MC38 model, co-administration with cisplatin: flow cytometry of cancer tissue. The format is in vivo, mouse. Conditions: versus control group; FIG. 34c.

For `N.N.[Cl][Pt][Cl]` [cisplatin], the “serum cytokine (IFN-γ and TNF-α) levels” value with MIF is “significantly increased”. For the same molecule, the “TCRγδ T cells secreting IFN-γ in cancer tissue” value in test [1] is recorded as “increased”.

These data come from patent US20240165216A1, “NOVEL R[…] OF MYC[…] AND USE OF SAME” (priority 2021, published 2024).
